Reference: patent publication US10184115B2, “Mutated cellobiose dehydrogenase with increased substrate specificity” (DIRECTSENS GMBH, priority 2012, dated 2019)

Target: T1, Myriococcum thermophilum cellobiose dehydrogenase (CDH, SEQ ID NO: 1) variant N313S (Thermothelomyces myriococcoides, UniProt A9XK88, N313S)
T1 sequence (A9XK88 22-828 N313S): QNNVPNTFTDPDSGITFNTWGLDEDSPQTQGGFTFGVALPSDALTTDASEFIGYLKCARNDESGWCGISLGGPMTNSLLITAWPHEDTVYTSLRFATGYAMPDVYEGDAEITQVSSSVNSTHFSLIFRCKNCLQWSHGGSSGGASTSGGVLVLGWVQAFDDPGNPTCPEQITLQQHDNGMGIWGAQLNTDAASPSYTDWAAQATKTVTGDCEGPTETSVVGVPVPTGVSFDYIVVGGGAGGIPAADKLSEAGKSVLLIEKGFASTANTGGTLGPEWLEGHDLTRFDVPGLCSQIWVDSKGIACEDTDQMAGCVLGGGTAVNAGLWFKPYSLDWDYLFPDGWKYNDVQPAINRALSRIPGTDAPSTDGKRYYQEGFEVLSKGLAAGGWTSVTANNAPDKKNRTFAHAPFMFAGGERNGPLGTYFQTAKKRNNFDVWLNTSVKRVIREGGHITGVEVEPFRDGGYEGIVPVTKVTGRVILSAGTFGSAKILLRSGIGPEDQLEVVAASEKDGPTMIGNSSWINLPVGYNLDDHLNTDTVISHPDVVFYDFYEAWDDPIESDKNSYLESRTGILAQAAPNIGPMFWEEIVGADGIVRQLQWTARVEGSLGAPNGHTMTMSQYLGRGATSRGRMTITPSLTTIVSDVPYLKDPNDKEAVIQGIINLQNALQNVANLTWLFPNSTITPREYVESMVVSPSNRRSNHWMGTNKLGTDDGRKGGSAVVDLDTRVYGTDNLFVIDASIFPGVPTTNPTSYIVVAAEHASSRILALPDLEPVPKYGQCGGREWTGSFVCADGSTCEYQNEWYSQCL
Assay: Steady-state kinetics, DCIP assay: M. thermophilum CDH N313S
Type: biochemical
Conditions: apparent, pH 4.5, 30° C.
Procedure: Enzyme activity was assayed at 30° C. using either the DCIP (Karapetyan et al., 2005 Journal of Biotechnology 121: 34-48) or cytochrome c (Canevascini et al., 1991, European Journal of Biochemistry 198: 43-52) as electron acceptor. […] Stock solutions of carbohydrates used for kinetic measurements were prepared in the respective buffer and allowed to stand overnight for mutarotation, while stock solutions of electron acceptors were prepared in water and immediately used. The reaction stoichiometry is 1 for the two-electron acceptor DCIP (1 mole of DCIP reduced per mole of carbohydrate oxidized), but 2 for the one-electron acceptor cytochrome c. Kinetic constants were calculated by fitting the observed data to the Henri-Michaelis-Menten equation or to the adapted model for substrate inhibition using nonlinear least-squares regression and the program SigmaPlot (Systat Software, San Jose, Calif., USA). […]
Recombinant wild-type CDH as well as variants were produced in 1 L baffled flasks. […] Increase in activity was monitored using the DCIP and the cytochrome c enzyme assays. […]
The sample was loaded on a 20 mL PHE Sepharose FF column (HR26/20) equilibrated with 50 mM Na-acetate buffer pH 5.5 containing 20% ammonium sulfate. […] Fractions were tested for CDH activity and pooled according to the highest Reinheitszahl (RZ, calculated from the absorbance ratio 420 nm/280 nm). […]

OC[C@H]1OC(O)[C@H](O)[C@@H](O)[C@@H]1O (some centres unmarked) [Glucose, glucose]
kcat: 6.8 s⁻¹ | kcat/KM: 8.8 M⁻¹ s⁻¹
